Source: BindingDB's records for doi:10.1021/jm801176e (Nci-Frederick, 2009)

Legend:
[1] = Inhibition of HIV1 reverse transcriptase M184V mutant-mediated viral DNA synthesis in human HOS cells assessed as luciferase activity treated 3 hrs before infection measured after 48 hrs by luminescence assay
[2] = Inhibition of HIV1 reverse transcriptase M184V mutant-mediated viral DNA synthesis in human HOS-313 cells expressing HSV thymidine kinase assessed as luciferase activity treated 3 hrs before infection measured after 48 hrs by luminescence assay
[3] = Inhibition of HIV1 wild type reverse transcriptase-mediated viral DNA synthesis in human HOS cells assessed as luciferase activity treated 3 hrs before infection measured after 48 hrs by luminescence assay
[4] = Inhibition of HIV1 wild type reverse transcriptase-mediated viral DNA synthesis in human HOS-313 cells expressing HSV thymidine kinase assessed as luciferase activity treated 3 hrs before infection measured after 48 hrs by luminescence assay

| SMILES | IC50 [1] [nM] | IC50 [2] [nM] | IC50 [3] [nM] | IC50 [4] [nM] |
| --- | --- | --- | --- | --- |
| Cc1cn([C@@H]2C[C@H](CO)[C@@H](O)C2)c(=O)[nH]c1=O | 1800 | 190 | 3200 | – |
| Cc1cccc2c1OP(=O)(OC[C@H]1C[C@@H](n3cc(C)c(=O)[nH]c3=O)C[C@@H]1O)OC2 (stereo not given in full) | – | – | 380 | 120 |
